Laboratory results from patent US4343812A, “Antidepressant 2-amino-and-2-(substituted amino)-cis-hexahydro-carbazoles, compositions and use” (E. I. Du Pont de Nemours and Company, priority 1980, dated 1982).
Structures can show the parent of a compound that is named as a salt. Where two headings read alike, the source gives them in different places.

How the values were obtained:
[1] = prior art; cited from earlier work
dogs = conditions: prior art; cited from earlier work
[2] = prior art; cited from earlier work; remark: listed apart in the source
[3] = test system: tetrabenazine-induced sedation and depression in mice; test: Antagonism of tetrabenazine-induced depression in mice (prevention of ptosis and exploratory loss), orally at 1 hour post-drug; type: in vivo, mice (Carworth CF1 S female); conditions: Mus musculus, oral, tetrabenazine 32 mg/kg intraperitoneally 30 minutes after drug
Experimental: (Everett, "The Dopa Response Potentiation Test and Its Use in Screening for Antidepressant Drugs", pp. 164-167 in "Antidepressant Drugs" [Proceedings of the First International Symposium], S. Garattini and M. N. G. Dukes, eds., 1967). Groups of 10 Carworth CF1 S female mice, 18-21 g each, were fasted 1.5 hours and were intubated with antagonist compounds at oral doses of 0, 5, 25, and 125 mg/kg or 0, 1, 3, 9, 27, and 81 mg/kg in 0.20 ml of 1% Methocel (methylcellulose). The mice were challenged 30 minutes later with tetrabenazine (as the methane-sulfonate), 32 mg/kg intraperitoneally (dissolved in 0.20 ml 0.05 M KCl at pH 2.0). One hour after antagonist (30 minutes after tetrabenazine), the mice were examined for signs of exploratory activity and ptosis (eyelid closure). Normal exploratory activity (relief from sedation) was recorded when a mouse lifted by the tail from a group of 10 in a testing box and placed on a stainless steel testing box lid (12.5"×8" with 0.33" mesh) either turned its head horizontally 30° in both directions or moved to the edge of the screen within 10 seconds after being placed on the screen. Relief from ptosis was recorded when exactly two seconds after placing the mouse facing the observer, lid closure was less than 50% in both eyes. For comparison, the marketed antidepressant amitriptylene was also tested, and an ED50 (effective dose in 50% of the cases) was determined. The lower the ED50, the better the antidepressant.

[4] = read-out: ED50 For Prevention of Exploratory Loss
[5] = read-out: ED50 For Prevention of Ptosis

Row | Compound | analgetic and psychotropic activity [1] | cardiotonic effects (dogs) | antidepressant activity [2] | ED50 [3, 4] [mg/kg] | ED50 [3, 5] [mg/kg]
1 | CN(C)C1CCc2[nH]c3ccccc3c2C1 (stereo not drawn) | analgetic and psychotropic activity | – | – | – | –
2 | CN(C)C1CCc2[nH]c3cc(O)ccc3c2C1 (stereo not drawn) | – | cardiotonic effects | – | – | –
3 | CNCCCC1CN(c2ccccc2)c2ccccc21 (stereo not drawn) | – | – | antidepressant activity | – | –
4 | CCCCCOc1ccc2c(c1)N[C@@H]1CC(NC(C)=O)CC[C@H]21 (stereo partly drawn) [Compound 1L] | – | – | – | 2 | 2
5 | CC(=O)NC1CC[C@@H]2c3ccccc3N[C@@H]2C1 (stereo partly drawn) [Compound 1a, N-(cis-1,3,4,4a,9,9a-hexahydro-2H-carbazol-2-yl)acetamide hydrochloride] | – | – | – | 2.3 | 0.7
6 | CC(=O)NC1CC[C@@H]2c3cc(F)ccc3N[C@@H]2C1 (stereo partly drawn) [Compound 1b] | – | – | – | 4.2 | 2.7
7 | CC(=O)NC1CC[C@@H]2c3cc(Cl)ccc3N[C@@H]2C1 (stereo partly drawn) [Compound 1c] | – | – | – | 14 | 3.3
8 | CC(=O)NC1CC[C@@H]2c3cc(Br)ccc3N[C@@H]2C1 (stereo partly drawn) [Compound 1d] | – | – | – | 3.3 | 2.1
9 | CC(=O)NC1CC[C@@H]2c3cc(C)ccc3N[C@@H]2C1 (stereo partly drawn) [Compound 1e] | – | – | – | 34 | 16
10 | COc1ccc2c(c1)[C@H]1CCC(NC(C)=O)C[C@H]1N2 (stereo partly drawn) [Compound 1f] | – | – | – | 27 | 27
11 | CC(=O)NC1CC[C@@H]2c3ccc(O)cc3N[C@@H]2C1 (stereo partly drawn) [Compound 1g] | – | – | – | 15.6 | 8.1
12 | COc1ccc2c(c1)NC1CC(NC(C)=O)CCC21 (stereo not drawn) [Compound 1h] | – | – | – | 4.2 | 2.2
13 | CCOc1ccc2c(c1)N[C@@H]1CC(NC(C)=O)CC[C@H]21 (stereo partly drawn) [Compound 1i] | – | – | – | 12.7 | 8.9
14 | CCCOc1ccc2c(c1)N[C@@H]1CC(NC(C)=O)CC[C@H]21 (stereo partly drawn) [Compound 1j] | – | – | – | 0.99 | 0.79
15 | CCCCOc1ccc2c(c1)N[C@@H]1CC(NC(C)=O)CC[C@H]21 (stereo partly drawn) [Compound 1k] | – | – | – | 0.35 | 0.22
16 | CCCCCCOc1ccc2c(c1)N[C@@H]1CC(NC(C)=O)CC[C@H]21 (stereo partly drawn) [Compound 1m] | – | – | – | 27 | 27
17 | CC(=O)NC1CCC2c3ccc(OCc4ccccc4)cc3NC2C1 (stereo not drawn) [Compound 1n] | – | – | – | 7.2 | 6.5
18 | CC(=O)NC1CC[C@@H]2c3ccccc3N(C)[C@@H]2C1 (stereo partly drawn) [Compound 1o, N -(cis-1,3,4,4a,9,9a-hexahydro-9-methyl-2H-carbazol-2-yl)acetamide] | – | – | – | 27 | 3.7
19 | O=CNC1CCC2c3ccccc3NC2C1 (stereo not drawn) [Compound 1p] | – | – | – | 21 | 21

Row | Compound | analgetic and psychotropic activity [1] | cardiotonic effects (dogs) | antidepressant activity [2] | ED50 [3, 4] [mg/kg] | ED50 [3, 5] [mg/kg]
20 | CCC(=O)NC1CCC2c3ccccc3NC2C1 (stereo not drawn) [Compound 1q] | – | – | – | 18 | 1.7
21 | CCCCC(=O)NC1CCC2c3ccccc3NC2C1 (stereo not drawn) [Compound 1r] | – | – | – | 7.5 | 6.5
22 | CCOC(=O)NC1CCC2c3ccccc3NC2C1 (stereo not drawn) [Compound 1s] | – | – | – | 4 | 4
23 | COC(=O)NC1CCC2c3ccccc3NC2C1 (stereo not drawn) [Compound 1t] | – | – | – | 9.7 | 5.2
24 | NC1CCC2c3ccccc3NC2C1 (stereo not drawn) [Compound 1u] | – | – | – | 0.75 | 0.57
25 | CNC1CCC2c3ccccc3NC2C1 (stereo not drawn) [Compound 1v] | – | – | – | 3 | 2.4
26 | CCNC1CCC2c3ccccc3NC2C1 (stereo not drawn) [Compound 1w] | – | – | – | 96 | 68
27 | CN(C)C1CCC2c3ccccc3NC2C1 (stereo not drawn) [Compound 1x] | – | – | – | 41 | 37
28 | CCN1c2ccccc2[C@H]2CCC(NC(C)=O)C[C@H]21 (stereo partly drawn) [Compound 1y, N-(cis-9-ethyl-1,3,4,4a,9,9a-hexahydro-2H-carbazol-2-yl) acetamide] | – | – | – | 5.2 | 4.7
29 | CCOc1ccc2c3c([nH]c2c1)CC(NC(C)=O)CC3 (stereo not drawn) [Compound 2L, N-(7-ethoxy-1,3,4,9-tetrahydro-2H-carbazol-2-yl)acetamide] | – | – | – | 2 | 2
30 | CC(=O)NC1CCc2c([nH]c3ccccc23)C1 (stereo not drawn) [Compound 2a, N-(1,3,4,9-tetrahydro-2H-carbazol-2-yl)acetamide] | – | – | – | 2.4 | 1.1
31 | CC(=O)NC1CCc2c([nH]c3ccc(F)cc23)C1 (stereo not drawn) [Compound 2b, N-(6-fluoro-1,3,4,9-tetrahydro-2H-carbazol-2-yl)acetamide] | – | – | – | 2.4 | 0.7
32 | CC(=O)NC1CCc2c([nH]c3ccc(Cl)cc23)C1 (stereo not drawn) [Compound 2c] | – | – | – | 6.5 | 2.4
33 | CC(=O)NC1CCc2c([nH]c3ccc(Br)cc23)C1 (stereo not drawn) [Compound 2d, N-(6-bromo-1,3,4,9-tetrahydro-2H-carbazol-2-yl)acetamide] | – | – | – | 17.4 | 10
34 | CC(=O)NC1CCc2c([nH]c3c(F)cccc23)C1 (stereo not drawn) [Compound 2e] | – | – | – | 19.7 | 14
35 | CC(=O)NC1CCc2c([nH]c3cc(Cl)cc(Cl)c23)C1 (stereo not drawn) [Compound 2f] | – | – | – | 4.7 | 3.3
36 | CC(=O)NC1CCc2c([nH]c3ccc(C)cc23)C1 (stereo not drawn) [Compound 2g] | – | – | – | 7.2 | 3
37 | COc1ccc2[nH]c3c(c2c1)CCC(NC(C)=O)C3 (stereo not drawn) [Compound 2h, N-(1,3,4,9-tetrahydro-6-methoxy-2H-carbazol-2-yl)acetamide] | – | – | – | 6.5 | 5.8
38 | COc1ccc2c3c([nH]c2c1)CC(NC(C)=O)CC3 (stereo not drawn) [Compound 2i, N-(1,3,4,9-tetrahydro-7-methoxy-2H-carbazol-2-yl)acetamide] | – | – | – | 0.9 | 0.8

Row | Compound | analgetic and psychotropic activity [1] | cardiotonic effects (dogs) | antidepressant activity [2] | ED50 [3, 4] [mg/kg] | ED50 [3, 5] [mg/kg]
39 | CCCCOc1ccc2c3c([nH]c2c1)CC(NC(C)=O)CC3 (stereo not drawn) [Compound 2j, N-(7-n-butyloxy-1,3,4,9-tetrahydro-2H-carbazol-2-yl)acetamide] | – | – | – | 0.57 | 0.51
40 | CC(=O)NC1CCc2c([nH]c3cc(O)ccc23)C1 (stereo not drawn) [Compound 2k, N-(1,3,4,9-tetrahydro-7-hydroxy-2H-carbazol-2-yl)acetamide] | – | – | – | > 125 | > 125
41 | CCCOc1ccc2c3c([nH]c2c1)CC(NC(C)=O)CC3 (stereo not drawn) [Compound 2m] | – | – | – | 0.6 | 0.6
42 | CCCCCOc1ccc2c3c([nH]c2c1)CC(NC(C)=O)CC3 (stereo not drawn) [Compound 2n] | – | – | – | 4.3 | 2.7
43 | CCCCCCOc1ccc2c3c([nH]c2c1)CC(NC(C)=O)CC3 (stereo not drawn) [Compound 2o] | – | – | – | 12 | 14
44 | CC(=O)NC1CCc2c([nH]c3cc(OCc4ccccc4)ccc23)C1 (stereo not drawn) [Compound 2p] | – | – | – | 6.5 | 6.5
45 | CC(=O)NC1CCc2c(n(C)c3ccccc23)C1 (stereo not drawn) [Compound 3L, N-(1,3,4,9-tetrahydro-9-methyl-2H-carbazol-2-yl)acetamide] | – | – | – | 11.2 | 9
46 | Cl.NC1CCc2c([nH]c3ccccc23)C1 (stereo not drawn) [Compound 3a, 2,3,4,9-Tetrahydro-1H-carbazol-2-amine hydrochloride] | – | – | – | 8 | 4
47 | O=CNC1CCc2c([nH]c3ccccc23)C1 (stereo not drawn) [Compound 3b, N-(1,3,4,9-tetrahydro-2H-carbazol-2-yl)formamide] | – | – | – | > 125 | 84
48 | CCC(=O)NC1CCc2c([nH]c3ccccc23)C1 (stereo not drawn) [Compound 3c, N-(1,3,4,9-tetrahydro-2H-carbazol-2-yl)propanamide] | – | – | – | > 81 | 67
49 | CCCCC(=O)NC1CCc2c([nH]c3ccccc23)C1 (stereo not drawn) [Compound 3d] | – | – | – | > 81 | > 81
50 | CCOC(=O)NC1CCc2c([nH]c3ccccc23)C1 (stereo not drawn) [Compound 3e, (1,3,4,9-tetrahydro-2H-carbazol-2-yl)carbamic acid, ethyl ester] | – | – | – | > 81 | 40
51 | COC(=O)NC1CCc2c([nH]c3ccccc23)C1 (stereo not drawn) [Compound 3f] | – | – | – | > 81 | > 81
52 | CCOC(=O)N(C)C1CCc2c([nH]c3ccccc23)C1 (stereo not drawn) [Compound 3g, Methyl(1,3,4,9-tetrahydro-2H-carbazol-2-yl)carbamic acid, ethyl ester] | – | – | – | 27 | 7.8
53 | CC(=O)N(C)C1CCc2c([nH]c3ccccc23)C1 (stereo not drawn) [Compound 3h, N-(1,3,4,9-tetrahydro-2H-carbazol-2-yl)-N-methylacetamide] | – | – | – | > 125 | > 125
54 | CCNC1CCc2c([nH]c3ccccc23)C1.Cl (stereo not drawn) [Compound 3i, N-ethyl-2,3,4,9-tetrahydro-1H-carbazol-2-amine hydrochloride] | – | – | – | 27 | 27
55 | CNC1CCc2c([nH]c3ccccc23)C1.Cl (stereo not drawn) [Compound 3j, 2,3,4,9-Tetrahydro-N-methyl-1H-carbazol-2-amine hydrochloride] | – | – | – | 32 | 12
56 | CN(C)C1CCc2c([nH]c3ccccc23)C1 (stereo not drawn) [Compound 3k] | – | – | – | 39 | 11.4
57 | CN(C)CCC=C1c2ccccc2CCc2ccccc21 [amitriptyline, reference compound] | – | – | – | 2.6 | 1.2
